Data on 12 molecules can be found in patent publication EP2092824A1, “Heterocyclyl pyrimidines” (Bayer CropScience AG, priority 2008, dated 2009).

Data set [1] can be described thus: logP determination by HPLC on reversed-phase column (EEC-Directive 79/831 Annex V.A8). It is filed as physicochemical. The conditions noted are these: c18 hplc, C 18 reversed phase, 43°C, LC-MS at pH 2,7 (0,1 % aqueous formic acid / acetonitrile). The procedure:
Die Bestimmung der in den Herstellungsbeispielen angegebenen logP-Werte erfolgte gemäß EEC-Directive 79/831 Annex V.A8 durch HPLC (High Performance Liquid Chromatography) an einer Phasenumkehrsäule (C 18). Temperatur: 43°C.
Die Bestimmung erfolgte mit der LC-MS bei pH 2,7 mit 0,1 % wässriger Ameisensäure und Acetonitril (enthält 0,1 % Ameisensäure) als Eluenten; linearer Gradient von 10 % Acetonitril bis 95 % Acetonitril.
Die Eichung erfolgte mit unverzweigten Alkan-2-onen (mit 3 bis 16 Kohlenstoffatomen), deren logP-Werte bekannt sind (Bestimmung der logP-Werte anhand der Retentionszeiten durch lineare Interpolation zwischen zwei aufeinanderfolgenden Alkanonen).

Another data set deals with Phaedon cochleariae. Put plainly: Phaedon test (PHAECO spray treatment). It is filed as in vivo. As to conditions: foliar, Aufwandmenge 500 g/ha, sprayed Chinese cabbage leaf discs, larvae, 100 % = all beetle larvae killed, read-out: Wirkung. The source says:
Phaedon-Test (PHAECO Spritzbehandlung)
(§1) Zur Herstellung einer zweckmäßigen Wirkstoffzubereitung vermischt man 1 Gewichtsteil Wirkstoff mit den angegebenen Mengen Lösungsmittel und Emulgator und verdünnt das Konzentrat mit emulgatorhaltigem Wasser auf die gewünschte Konzentration.
Chinakohlblattscheiben (Brassica pekinensis) werden mit einer Wirkstoffzubereitung der gewünschten Konzentration gespritzt und nach dem Abtrocknen mit Larven des Meerrettichblattkäfers (Phaedon cochleariae) besetzt.
Nach der gewünschten Zeit wird die Wirkung in % bestimmt. Dabei bedeutet 100 %, dass alle Käferlarven abgetötet wurden; 0 % bedeutet, dass keine Käferlarven abgetötet wurden.

A further data set has as its system Myzus persicae. Put plainly: Myzus test (MYZUPE spray treatment). The data set is classed as in vivo. As to conditions: foliar, Aufwandmenge 500 g/ha, sprayed Chinese cabbage leaf discs (Brassica pekinensis) infested with all stages, 100 % = all aphids killed, read-out: Wirkung.
Excerpt: Myzus-Test (MYZUPE Spritzbehandlung)
as §1
Chinakohlblattscheiben (Brassica pekinensis), die von allen Stadien der Grünen Pfirsichblattlaus (Myzus persicae) befallen sind, werden mit einer Wirkstoffzubereitung der gewünschten Konzentration gespritzt.
Nach der gewünschten Zeit wird die Wirkung in % bestimmt. Dabei bedeutet 100 %, dass alle Blattläuse abgetötet wurden; 0 % bedeutet, dass keine Blattläuse abgetötet wurden.

In another data set the test system is Puccinia recondita. Put plainly: Puccinia test (wheat) / protective. The data set is classed as in vivo. The conditions noted are these: Konzentration an Wirkstoff 500ppm, wheat plants, evaluation 7-9 days after inoculation, 100 % = no infestation. From the text: Puccinia-Test (Weizen) / protektiv
(§2) Zur Herstellung einer zweckmäßigen Wirkstoffzubereitung vermischt man 1 Gewichtsteil Wirkstoff mit den angegebenen Mengen Lösungsmittel und Emulgator und verdünnt das Konzentrat mit Wasser auf die gewünschte Konzentration.
Zur Prüfung auf protektive Wirksamkeit bespritzt man junge Weizenpflanzen mit der Wirkstoffzubereitung in der angegebenen Aufwandmenge. 1 Tag nach der Behandlung werden die Pflanzen mit einer Sporensuspension von Puccinia recondita inokuliert und stehen dann 48h bei 100% rel. Feuchte und 22°C. Anschließend stehen die Pflanzen bei 80% rel. Luftfeuchtigkeit und einer Temperatur von 20 °C.
7-9 Tage nach der Inokulation erfolgt die Auswertung. Dabei bedeutet 0 % ein Wirkungsgrad, der demjenigen der Kontrolle entspricht, während ein Wirkungsgrad von 100 % bedeutet, dass kein Befall beobachtet wird.

Another data set deals with Sphaerotheca fuliginea. Put plainly: Sphaerotheca test (cucumber) / protective. It is filed as in vivo. The conditions noted are these: Konzentration an Wirkstoff 500ppm, cucumber plants, evaluation 7 days after inoculation, 100 % = no infestation.
Excerpt: Sphaerotheca-Test (Gurke) / protektiv
as §2
Zur Prüfung auf protektive Wirksamkeit bespritzt man junge Gurkenpflanzen mit der Wirkstoffzubereitung in der angegebenen Aufwandmenge. 1 Tag nach der Behandlung werden die Pflanzen mit einer Sporensuspension von Sphaerotheca fuliginea inokuliert. Anschließend werden die Pflanzen in einem Gewächshaus bei 70 % relativer Luftfeuchtigkeit und einer Temperatur von 23 °C aufgestellt.
7 Tage nach der Inokulation erfolgt die Auswertung. Dabei bedeutet 0 % ein Wirkungsgrad, der demjenigen der Kontrolle entspricht, während ein Wirkungsgrad von 100 % bedeutet, daß kein Befall beobachtet wird.

Another data set concerns Meloidogyne incognita. Put plainly: Meloidogyne test (MELGIN spray treatment). The data set is classed as in vivo. The conditions noted are these: Aufwandmenge 4 ppm; nematicidal effect by gall formation on lettuce roots; 100 % = no galls. From the text:
Meloidogyne-Test (MELGIN Spritzbehandlung)
Zur Herstellung einer zweckmäßigen Wirkstoffzubereitung vermischt man 1 Gewichtsteil Wirkstoff mit der angegebenen Menge Lösungsmittel und verdünnt das Konzentrat mit Wasser auf die gewünschte Konzentration.
Gefäße werden mit Sand, Wirkstofflösung, Meloidogyne incognita-Ei-Larven-Suspension und Salatsamen gefüllt. Die Salatsamen keimen und die Pflänzchen entwickeln sich. An den Wurzeln entwickeln sich die Gallen.
Nach der gewünschten Zeit wird die nematizide Wirkung an Hand der Gallenbildung in % bestimmt. Dabei bedeutet 100 %, dass keine Gallen gefunden wurden; 0 % bedeutet, dass die Zahl der Gallen an den behandelten Pflanzen der der unbehandelten Kontrolle entspricht.

Regarding `CSc1nc(Cl)c(-c2ccccc2Cl)c(Cl)n1` [4,6-Dichlor-5-(2-chlorphenyl)-2-(methylthio)pyrimidin], the chromatographic logP (in general, a lipophilicity value derived from retention on a column) in data set [1] worked out at 4.52.

As for `CC(C)Nc1nc([S+](C)[O-])nc(Cl)c1-c1ccccc1Cl` (centres unmarked) [4-Chlor-5-(2-chlorphenyl)-6-(isopropylamino)-2-(methylsulfinyl)-pyrimidin], in data set [1], the chromatographic logP was determined as 2.55.

In data set [1], `CSc1nc(Cl)c(-c2ccccc2Cl)c(NC(C)C)n1` [4-Chlor-5-(2-chlorphenyl)-6-(isopropylamino)-2-(methylthio)-pyrimidin] returned a chromatographic logP of 4.52.

For the molecule `CC(C)Nc1nc(-n2ccc(C(=O)NS(C)(=O)=O)n2)nc(Cl)c1-c1ccccc1Cl` [I-2, 1-[4-Chlor-5-(2-chlorphenyl)-6-(isopropylamino)pyrimidin-2-yl]-N-(methylsulfonyl)-1H-pyrazol-3-carboxamid], the mortality at 500 g/ha with Phaedon cochleariae and in the data set with Myzus persicae was at least 80% each time. Moreover, the Wirkungsgrad in the data set with Puccinia recondita and in the data set with Sphaerotheca fuliginea was at least 70% throughout.

On to `Cc1cc(C(=O)NS(C)(=O)=O)nn1-c1nc(Cl)c(-c2ccccc2Cl)c(NC(C)C)n1` [I-3, 1-[4-Chlor-5-(2-chlorphenyl)-6-(isopropylamino)pyrimidin-2-yl]-5-methyl-N-(methylsulfonyl)-1H-pyrazol-3-carboxamid], for which the Wirkung with Meloidogyne incognita is listed as at least 80%. Also, the mortality at 500 g/ha with Phaedon cochleariae and in the data set on Myzus persicae was at least 80% each time. The Wirkungsgrad with Puccinia recondita and in the data set on Sphaerotheca fuliginea was at least 70% each time.

Take `Cc1cc(C(=O)NS(C)(=O)=O)nn1-c1nc(Cl)c(-c2ccccc2)c(NC(C)C)n1` [I-4]: the mortality at 500 g/ha in the data set with Phaedon cochleariae is at least 80%.

As to `Cc1cc(C(=O)NS(C)(=O)=O)nn1-c1nc(Cl)c(-c2c(F)cc(F)cc2F)c(NC(C)C)n1` [I-6], the mortality at 500 g/ha in the data set on Phaedon cochleariae and in the data set on Myzus persicae was at least 80% throughout.

Molecule `CC(C)Nc1nc(S(C)(=O)=O)nc(Cl)c1-c1ccccc1Cl` [II-1, 4-Chlor-5-(2-chlorphenyl)-6-isopropylamino-2-methylsulfonyl-pyrimidin] returned a chromatographic logP in data set [1] of 2.96.

Regarding `CC(C)Nc1nc(-n2ccc(C(=O)O)n2)nc(Cl)c1-c1ccccc1Cl` [X-1, 1-[4-Chlor-5-(2-chlorphenyl)-6-(isopropylamino)pyrimidin-2-yl]-1H-pyrazol-3-carbonsäure], the mortality at 500 g/ha in the data set with Phaedon cochleariae and with Myzus persicae was at least 80% each time.

On to `Cc1cc(C(=O)O)nn1-c1nc(Cl)c(-c2ccccc2Cl)c(NC(C)C)n1` [X-2, 1-[4-Chlor-5-(2-chlorphenyl)-6-(isopropylamino)pyrimidin-2-yl]-5-methyl-1H-pyrazol-3-carbonsäure], for which the mortality at 500 g/ha in the data set with Phaedon cochleariae and in the data set on Myzus persicae was at least 80% each time.

`Cc1cc(C(=O)O)nn1-c1nc(Cl)c(-c2ccccc2)c(NC(C)C)n1` [X-3]: the mortality at 500 g/ha in the data set with Phaedon cochleariae is at least 80%.

For `Cc1cc(C(=O)O)nn1-c1nc(Cl)c(-c2c(F)cc(F)cc2F)c(NC(C)C)n1` [X-5], the mortality at 500 g/ha with Phaedon cochleariae and in the data set on Myzus persicae was at least 80% each time.
